Source: PubChem BioAssay AID2060896 (Molecular Pharmacology Branch, DTP, NCI, 2025)
Blank lines part the entries; values can stand above or below the compound they belong to.

System: 941728-121-R-J1-PDC complex spheroid viability
Assay: Anticancer human tumor 941728-121-R-J1-PDC patient-derived lung adenocarcinoma cell line growth inhibition [RAS]
Conditions: for IC50: curve of first compound; for viability, T/C: stronger effect = lower value
Summary of the method: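 Tumour cells grown as complex spheroids with HUVEC endothelial cells and mesenchymal stem cells, treated with RAS pathway inhibitor combinations. Each agent spans half-log steps from near clinical Cmax, or 10 microM where Cmax is unknown.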

[1] = second compound 0.00316 µM, first compound 0.0316 µM
[2] = second compound 0.00316 µM, first compound 0.1 µM
[3] = second compound 0.00316 µM, first compound 0.316 µM
[4] = second compound 0.00316 µM, first compound 1 µM
[5] = second compound 0.01 µM, first compound 0.0316 µM
[6] = second compound 0.01 µM, first compound 0.1 µM
[7] = second compound 0.01 µM, first compound 0.316 µM
[8] = second compound 0.01 µM, first compound 1 µM
[9] = second compound 0.0316 µM, first compound 0.0316 µM
[10] = second compound 0.0316 µM, first compound 0.1 µM
[11] = second compound 0.0316 µM, first compound 0.316 µM
[12] = second compound 0.0316 µM, first compound 1 µM
[13] = second compound 0.1 µM, first compound 0.0316 µM
[14] = second compound 0.1 µM, first compound 0.1 µM
[15] = second compound 0.1 µM, first compound 0.316 µM
[16] = second compound 0.1 µM, first compound 1 µM
[17] = second compound 0.316 µM, first compound 0.0316 µM
[18] = second compound 0.316 µM, first compound 0.1 µM
[19] = second compound 0.316 µM, first compound 0.316 µM
[20] = second compound 0.316 µM, first compound 1 µM
[21] = second compound 1 µM, first compound 0.0316 µM
[22] = second compound 1 µM, first compound 0.1 µM
[23] = second compound 1 µM, first compound 0.316 µM
[24] = second compound 1 µM, first compound 1 µM
[25] = second compound 0.00316 µM, first compound 3.16 µM
[26] = second compound 0.00316 µM, first compound 10 µM
[27] = second compound 0.01 µM, first compound 3.16 µM
[28] = second compound 0.01 µM, first compound 10 µM
[29] = second compound 0.0316 µM, first compound 3.16 µM
[30] = second compound 0.0316 µM, first compound 10 µM
[31] = second compound 0.1 µM, first compound 3.16 µM
[32] = second compound 0.1 µM, first compound 10 µM
[33] = second compound 0.316 µM, first compound 3.16 µM
[34] = second compound 0.316 µM, first compound 10 µM
[35] = second compound 1 µM, first compound 3.16 µM
[36] = second compound 1 µM, first compound 10 µM
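Further: spheroids exposed to compounds for 7 days before readout.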
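Wherever viability, T/C is given: 100% = DMSO vehicle control viability.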

- IC50 (second compound 0.00316 µM): < 0.00316 µM
- IC50 (second compound 0.01 µM): < 0.00316 µM
- IC50 (second compound 0.0316 µM): < 0.00316 µM
- IC50 (second compound 0.1 µM): < 0.00316 µM
- IC50 (second compound 0.316 µM): < 0.00316 µM
- IC50 (second compound 1 µM): < 0.00316 µM
SMILES: CCN1CCN(Cc2ccc(Nc3ncc(F)c(-c4cc(F)c5nc(C)n(C(C)C)c5c4)n3)nc2)CC1 + C=CC(=O)N1CCN(c2nc(OCC3CCCN3C)nc3c(F)c(-c4nc(N)cc(C)c4C(F)(F)F)c(Cl)cc23)C(C)C1
- viability, T/C (second compound 0.00316 µM, first compound 0.00316 µM): 21.3%
- viability, T/C (second compound 0.00316 µM, first compound 0.01 µM): 18.4%
- viability, T/C [1]: 18.1%
- viability, T/C [2]: 20.8%
- viability, T/C [3]: 15.6%
- viability, T/C [4]: 15.6%
- viability, T/C (second compound 0.01 µM, first compound 0.00316 µM): 20.1%
- viability, T/C (second compound 0.01 µM, first compound 0.01 µM): 18.5%
- viability, T/C [5]: 17.5%
- viability, T/C [6]: 15.9%
- viability, T/C [7]: 13.1%
- viability, T/C [8]: 12.6%
- viability, T/C (second compound 0.0316 µM, first compound 0.00316 µM): 18.4%
- viability, T/C (second compound 0.0316 µM, first compound 0.01 µM): 20.1%
- viability, T/C [9]: 14.6%
- viability, T/C [10]: 13.5%
- viability, T/C [11]: 13.8%
- viability, T/C [12]: 15.1%
- viability, T/C (second compound 0.1 µM, first compound 0.00316 µM): 18.8%
- viability, T/C (second compound 0.1 µM, first compound 0.01 µM): 19%
- viability, T/C [13]: 18.6%
- viability, T/C [14]: 15.8%
- viability, T/C [15]: 14.4%
- viability, T/C [16]: 13.5%
- viability, T/C (second compound 0.316 µM, first compound 0.00316 µM): 18%
- viability, T/C (second compound 0.316 µM, first compound 0.01 µM): 17.4%
- viability, T/C [17]: 18.5%
- viability, T/C [18]: 17.3%
- viability, T/C [19]: 13.2%
- viability, T/C [20]: 13.9%
- viability, T/C (second compound 1 µM, first compound 0.00316 µM): 21.6%
- viability, T/C (second compound 1 µM, first compound 0.01 µM): 18.8%
- viability, T/C [21]: 20.6%
- viability, T/C [22]: 16.5%
- viability, T/C [23]: 14.7%
- viability, T/C [24]: 13.2%

- IC50 (second compound 0.00316 µM): < 0.0316 µM
- IC50 (second compound 0.01 µM): < 0.0316 µM
- IC50 (second compound 0.0316 µM): < 0.0316 µM
- IC50 (second compound 0.1 µM): < 0.0316 µM
- IC50 (second compound 0.316 µM): < 0.0316 µM
- IC50 (second compound 1 µM): < 0.0316 µM
SMILES: Cc1nc(N2CCC3(CC2)COC(C)C3N)c(CO)nc1Sc1ccnc(N)c1Cl (stereo unspecified) + C=CC(=O)N1CCN(c2nc(OCC3CCCN3C)nc3c(F)c(-c4nc(N)cc(C)c4C(F)(F)F)c(Cl)cc23)C(C)C1
- viability, T/C [1]: 19%
- viability, T/C [2]: 17.5%
- viability, T/C [3]: 16.5%
- viability, T/C [4]: 17.4%
- viability, T/C [25]: 16.4%
- viability, T/C [26]: 17.3%
- viability, T/C [5]: 17.8%
- viability, T/C [6]: 17.4%
- viability, T/C [7]: 18.4%
- viability, T/C [8]: 20.9%
- viability, T/C [27]: 16.2%
- viability, T/C [28]: 16.3%
- viability, T/C [9]: 18.5%
- viability, T/C [10]: 18.3%
- viability, T/C [11]: 13.9%
- viability, T/C [12]: 15.6%
- viability, T/C [29]: 15.9%
- viability, T/C [30]: 16.9%
- viability, T/C [13]: 19%
- viability, T/C [14]: 16.7%
- viability, T/C [15]: 15.5%
- viability, T/C [16]: 17.6%
- viability, T/C [31]: 17.8%
- viability, T/C [32]: 14.9%
- viability, T/C [17]: 19.3%
- viability, T/C [18]: 28.2%
- viability, T/C [19]: 18.2%
- viability, T/C [20]: 16.4%
- viability, T/C [33]: 15.9%
- viability, T/C [34]: 15.9%
- viability, T/C [21]: 20.2%
- viability, T/C [22]: 18.2%
- viability, T/C [23]: 15.9%
- viability, T/C [24]: 16.1%
- viability, T/C [35]: 19.1%
- viability, T/C [36]: 18.1%

- IC50 (second compound 0.00316 µM): < 0.0316 µM
- IC50 (second compound 0.01 µM): < 0.0316 µM
- IC50 (second compound 0.0316 µM): < 0.0316 µM
- IC50 (second compound 0.1 µM): < 0.0316 µM
- IC50 (second compound 0.316 µM): < 0.0316 µM
- IC50 (second compound 1 µM): < 0.0316 µM
SMILES: NC1c2ccccc2OC12CCN(c1cnc3c(N4CCCc5ncccc54)n[nH]c3n1)CC2 (stereo unspecified) + C=CC(=O)N1CCN(c2nc(OCC3CCCN3C)nc3c(F)c(-c4nc(N)cc(C)c4C(F)(F)F)c(Cl)cc23)C(C)C1
- viability, T/C [1]: 15.4%
- viability, T/C [2]: 15.1%
- viability, T/C [3]: 15.6%
- viability, T/C [4]: 17%
- viability, T/C [25]: 16.8%
- viability, T/C [26]: 17.1%
- viability, T/C [5]: 18.8%
- viability, T/C [6]: 15.7%
- viability, T/C [7]: 16.2%
- viability, T/C [8]: 15.5%
- viability, T/C [27]: 17.1%
- viability, T/C [28]: 17.5%
- viability, T/C [9]: 16.4%
- viability, T/C [10]: 15.7%
- viability, T/C [11]: 15.8%
- viability, T/C [12]: 16.8%
- viability, T/C [29]: 15.9%
- viability, T/C [30]: 16.3%
- viability, T/C [13]: 15%
- viability, T/C [14]: 15.3%
- viability, T/C [15]: 16%
- viability, T/C [16]: 17.6%
- viability, T/C [31]: 17%
- viability, T/C [32]: 17%
- viability, T/C [17]: 16.3%
- viability, T/C [18]: 16.8%
- viability, T/C [19]: 17%
- viability, T/C [20]: 16.9%
- viability, T/C [33]: 15.7%
- viability, T/C [34]: 16%
- viability, T/C [21]: 16.1%
- viability, T/C [22]: 15.1%
- viability, T/C [23]: 16%
- viability, T/C [24]: 16.6%
- viability, T/C [35]: 17.6%
- viability, T/C [36]: 17.2%
